This note sets out measurements from patent publication US6441023B1 (American Home Products Corporation, priority 1997, dated 2002).

Counter-ions that a name gives are not always drawn.

The term melting point denotes the temperature, or range, at which the solid turns liquid. In general, inhibition refers to the drop in the measured response relative to a control, in per cent.

The target in one series is T1, TACE (Homo sapiens, UniProt P78536).
T1 construct: purchased Immunex
Briefly: Procedure for measuring TACE inhibition. The following applies: for inhibition at 10 µM: read-out: TACE % inhibition at 10 micromolar (*); for IC50: read-out: TACE IC 50. In kind it is biochemical. Here is the method: Using 96-well black microtiter plates, each well receives a solution composed of 10 μL TACE (Inmunex, final concentration 1 μg/mL), 70 μL Tris buffer, pH 7.4 containing 10% glycerol (final concentration 10 mM), and 10 μL of test compound solution in DMSO ([…], DMSO concentration <1%) and incubated for 10 minutes at room temperature. The reaction is initiated by addition of a fluorescent peptidyl substrate (final concentration 100 μM to each well and then shaking on a shaker for 5 sec.
The reaction is read (excitation 340 nm, emission 420 nm) for 10 min. and the increase in fluorescence over time is plotted as a linear line. The slope of the line is calculated and represents the reaction rate.
The mean (xtsem) of the control rate is calculated and compared for statistical significance (p<0.05) with drug-treated rates using Dunnett's multiple comparison test.

The next series concerns the target T2, MMP 9 (Homo sapiens, UniProt P14780).
T2 construct: from tissue; host or cells: human neutrophils
Briefly: In vitro gelatinase assay (human neutrophil gelatinase B). It is filed as biochemical. To be noted: for IC50: read-out: MMP 9 IC 50. The method, then:
The assay is based on the cleavage of the thiopeptide substrate ((Ac-Pro-Leu-Gly(2 mercapto-4 methyl-pentanoyl)-Leu-Gly-OEt), Bachem Bioscience) by the enzyme, gelatinase, releasing the substrate product which reacts calorimetrically with DTNB ((5,5′-dithio-bis(2-nitro-benzoic acid)). The enzyme activity is measured by the rate of the color increase.
The thiopeptide substrate is made up fresh as a 20 mM stock in 100% DMSO and the DTNB is dissolved in 100% DMSO as a 100 mM stock and stored in dark at room temperature. Both the substrate and DTNB are diluted together to 1 mM with substrate buffer (50 mM HEPES pH 7.5, 5 mM CaCl2) before use. The stock of human neutrophil gelatinase B is diluted with assay buffer (50 mnM HEPES pH 7.5, 5 mM CaCl2, 0.02% Brij) to a final concentration of 0.15 mnM.
The increase in OD405 is plotted and the slope of the line is calculated which represents the reaction rate.

The target in the next series is MMP 13 (Homo sapiens, UniProt P45452). The series is described as follows: MMP 13 inhibition (manual). In kind it is biochemical. The following applies: for IC50: read-out: MMP 13 IC 50.
Another series addresses T3, MMP 1 (Homo sapiens, UniProt P03956).
T3 construct: human recombinant fibroblast collagenase (truncated, mw=18,828, WAR, Radnor)
T3 sequence (P03956 100-269 limits assumed): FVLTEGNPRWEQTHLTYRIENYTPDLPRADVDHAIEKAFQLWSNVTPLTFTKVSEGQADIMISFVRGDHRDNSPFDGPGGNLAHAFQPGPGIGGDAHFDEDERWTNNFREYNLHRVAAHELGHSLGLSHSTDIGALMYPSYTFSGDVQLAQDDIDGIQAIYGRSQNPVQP
The series is described as follows: In vitro collagenase assay (human recombinant fibroblast collagenase). In kind it is biochemical. The following applies: for IC50: read-out: MMP 1 IC 50. The method, then: The assay is based on the cleavage of a peptide substrate ((Dnp-Pro-Cha-Gly-Cys(iNe)-His-Ala-Lys(NMa)-NH2), Peptide International, Inc.) by collag,enase releasing the fluorescent NMa group which is quantitated on the fluorometer. Dnp quenches the NiIa fluorescence in the intact substrate. […] Substrate is dissolved in methanol and stored frozen in 1 mM aliquots. Collagenase is stored frozen in buffer in 25 µM aliquots. For the assay, substrate is dissolved in HCBC buffer to a final concentration of 10 μM and collagenase to a final concentration of 5 nM. Compounds are dissolved in methanol, DMSO, or HCBC. The methanol and DMSO are diluted in HCBC to <1.0%. Compounds are added to the 96 well plate containing enzyme and the reaction is started by the addition of substrate.
The slope of the line is calculated and represents the reaction rate.
The mean (x±sem) of the control rate is calculated and compared for statistical significance (p<0.05) with drug-treated rates using Dunnett's multiple comparison test.

T1 sequence (P78536 215-824): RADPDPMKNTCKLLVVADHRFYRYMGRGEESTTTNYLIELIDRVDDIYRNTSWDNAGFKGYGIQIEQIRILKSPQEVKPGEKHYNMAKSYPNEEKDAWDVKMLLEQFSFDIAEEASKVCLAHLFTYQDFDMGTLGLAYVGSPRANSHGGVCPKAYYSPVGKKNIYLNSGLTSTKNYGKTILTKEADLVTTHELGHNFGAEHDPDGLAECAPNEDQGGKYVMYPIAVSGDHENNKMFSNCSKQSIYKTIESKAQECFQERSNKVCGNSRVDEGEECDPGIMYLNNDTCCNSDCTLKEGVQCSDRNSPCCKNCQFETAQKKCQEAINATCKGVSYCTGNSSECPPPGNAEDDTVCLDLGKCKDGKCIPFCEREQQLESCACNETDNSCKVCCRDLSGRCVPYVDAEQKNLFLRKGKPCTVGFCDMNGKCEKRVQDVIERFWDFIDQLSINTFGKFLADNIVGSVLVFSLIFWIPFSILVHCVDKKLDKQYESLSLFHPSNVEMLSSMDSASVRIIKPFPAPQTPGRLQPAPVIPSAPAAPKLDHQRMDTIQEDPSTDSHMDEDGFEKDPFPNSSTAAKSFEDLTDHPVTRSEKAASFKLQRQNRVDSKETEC
T2 sequence (P14780 94-707): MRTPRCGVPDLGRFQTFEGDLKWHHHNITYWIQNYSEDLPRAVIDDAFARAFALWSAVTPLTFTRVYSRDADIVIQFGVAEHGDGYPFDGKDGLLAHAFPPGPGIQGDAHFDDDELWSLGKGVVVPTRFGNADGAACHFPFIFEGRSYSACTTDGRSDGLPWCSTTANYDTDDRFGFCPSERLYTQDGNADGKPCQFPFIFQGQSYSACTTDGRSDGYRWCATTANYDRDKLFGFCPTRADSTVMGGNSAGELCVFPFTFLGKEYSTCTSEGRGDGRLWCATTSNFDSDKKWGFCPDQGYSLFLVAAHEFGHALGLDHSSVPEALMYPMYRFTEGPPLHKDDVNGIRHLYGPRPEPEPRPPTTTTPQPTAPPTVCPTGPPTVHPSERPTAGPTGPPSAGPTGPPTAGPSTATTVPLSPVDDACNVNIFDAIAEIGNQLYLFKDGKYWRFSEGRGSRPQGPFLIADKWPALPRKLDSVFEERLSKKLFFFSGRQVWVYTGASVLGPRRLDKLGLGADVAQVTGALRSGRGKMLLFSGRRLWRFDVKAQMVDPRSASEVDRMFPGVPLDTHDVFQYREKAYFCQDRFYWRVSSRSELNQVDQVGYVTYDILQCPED

For `Cc1ccc(CN2CCC(C(=O)NO)(S(=O)(=O)c3ccc(OCc4ccc(Cl)cc4)cc3)CC2)cc1` (as salt: HCl) [Example 266, [4-(4-Chloro-benzyloxy)-benzenesulfonyl]-1-(4-methylbenzyl)-piperidine-4-carboxylic acid hydroxamide], the melting point came out at 172 °C.

As for `CCCCOc1ccc(S(=O)(=O)C2(C(=O)NO)CCN(Cc3ccc(Cl)c(Cl)c3)CC2)cc1` [Example 263, 1-(3,4-Dichlorobenzyl)-4-(4-butoxy-benzenesulfonyl)-piperidine-4-carboxylic acid hydroxyamide], the inhibition at 10 µM at TACE was 57.7%. The figures for the IC50 at MMP 9, at MMP 13 and on MMP 1 were 20.3 nM, 5.2 nM and 3670 nM, respectively.

Regarding `CCCCOc1ccc(S(=O)(=O)C2(C(=O)NO)CCN(Cc3ccc(C)cc3)CC2)cc1` [Example 267, 4-(4-Butoxy-benzenesulfonyl)-1-(4-methylbenzyl)-piperidine-4-carboxylic acid hydroxamide], the IC50 turned out to be 508 nM at TACE, 5.4 nM on MMP 9, 2.3 nM at MMP 13 and 3620 nM on MMP 1.

In turn, `CCCCOc1ccc(S(=O)(=O)C2(C(=O)NO)CCN(Cc3cccc(OC)c3)CC2)cc1` (as salt: HCl) [Example 260, 4-(4-butoxy-benzenesulfonyl)-1-(3-methoxy-benzyl)-piperidine-4-carboxylic acid hydroxyamide] registered a melting point of 137 °C.

Consider “2-[8-(1-carboxy-ethanesulfonyl)-octane-1-sulfonyl]-propionic acid hydroxyamide [Example 49]”, for which the “MMP 9 % inhibition at 1 micromolar” value on MMP 9 (1 micromolar) amounted to 23.7%. Further, on MMP 13 (1 micromolar), the “MMP 13 % inhibition at 1 micromolar” value is 54.6%. Further, the “MMP 1 % inhibition at 1 micromolar” value on MMP 1 (1 micromolar) is listed as 10.1%.

The compound `CCCCOc1ccc(S(=O)(=O)C2(C(=O)NO)CCN(Cc3ccc(Cl)c(Cl)c3)CC2)cc1` (as salt: HCl) [Example 263, 1-(3,4-Dichlorobenzyl)-4-(4-butoxy-benzenesulfonyl)-piperidine-4-carboxylic acid hydroxyamide] returned a melting point of 256.8 °C.

Take `CCCCCC#CCC(Cc1cccnc1)(C(=O)NO)S(=O)(=O)c1ccc(F)cc1` (stereo not drawn) [Example 77, 2-(4-Fluoro-benzenesulfonyl)-2-pyridin-3-ylmethyl-decfynoic acid hydroxyamide]: the melting point lay within 123 to 124 °C.

`O=C(NO)C1(S(=O)(=O)c2ccc(Oc3ccc(Cl)cc3)cc2)CCN(Cc2ccccc2)CC1` [Example 252, 1-Benzyl-4-[4-(4-chloro-phenoxy)-benzenesulfonyl]-piperidine-4-carboxylic acid hydroxyamide]: the figures for the IC50 at MMP 9, at MMP 13 and at MMP 1 were 1.1 nM, 0.9 nM and 801 nM, respectively.

In turn, `COc1ccc(S(=O)(=O)C(Cc2cccnc2)(CC(C)C)C(=O)NO)cc1` (stereo not drawn) [Example 66, 2-(4-Methoxy-benzenesulfonyl)-4-methyl-2-pyrdin-3-yh nethyl-pentoic acid hydroxyamide] gave a melting point of 78 °C.

Take `CCCCOc1ccc(S(=O)(=O)C2(C(=O)NO)CCN(Cc3ccncc3)CC2)cc1` [Example 269, 4-(4-Butoxy-benzenesulfonyl)-1-pyridin-4-ylmethyl-piperidine-4-carboxylic acid hydroxamide]: the IC50 on TACE was determined as 296 nM; on MMP 9, 2.2 nM; at MMP 13 it was 1.4 nM; at MMP 1 it was 2070 nM.

Compound `CC#CCC(Cc1cccnc1)(C(=O)NO)S(=O)(=O)c1ccc(F)cc1` (stereo not drawn) [Example 76, 2-(4-Fluoro-benzenesulfonyl)-2-pyridin-3-ylmethyl-hex4-ynoic acid hydroxyamide] yielded a melting point of 150 °C.

As for `CCCCOc1ccc(S(=O)(=O)C2(C(=O)NO)CCN(Cc3ccc(C#N)cc3)CC2)cc1` (as salt: HCl) [Example 268, 4-(4-Butoxy-benzenesulfonyl)-1-(4-cyano-benzyl)-piperidine-4-hydroxamide carboxylic acid hydroxamide], the melting point turned out to be 241.6 °C.

Consider `CCCCOc1ccc(S(=O)(=O)C2(C(=O)NO)CCN(Cc3ccc(C#N)cc3)CC2)cc1` [Example 268, 4-(4-Butoxy-benzenesulfonyl)-1-(4-cyano-benzyl)-piperidine-4-hydroxamide carboxylic acid hydroxamide], for which the IC50 at TACE amounted to 278 nM; at MMP 9, 2.8 nM; on MMP 13 it was 1.1 nM; on MMP 1 it was 2290 nM.

Take `CCCCN1CCC(C(=O)NO)(S(=O)(=O)c2ccc(OCCC(C)C)cc2)CC1` [Example 256, 1 -Butyl-4-[4-(3-methyl-butoxy)-benzenesulfonyl]-piperidine-4-carboxylic acid hydroxyamide]: the inhibition at 10 µM on TACE is 43%. Also, the IC50 on MMP 9 came to 7.2 nM; at MMP 13 it was 2.9 nM; on MMP 1 it was 10000 nM.

For `CCCCN1CCC(C(=O)NO)(S(=O)(=O)c2ccc(Oc3ccc(Cl)cc3)cc2)CC1` [Example 251], the IC50 was 301 nM at TACE, 0.8 nM at MMP 9, 0.9 nM at MMP 13 and 1070 nM at MMP 1.

As to `CCCCOc1ccc(S(=O)(=O)C2(C(=O)NO)CCN(Cc3cccc(Oc4ccccc4)c3)CC2)cc1` [Example 265, 4-(4-Butoxy-benzenesulfonyl)-1-(3-phenoxy-benzyl)-piperidine-4-carboxylic acid hydroxamide], the IC50 was determined as 1040 nM on TACE, 9.3 nM on MMP 9, 7.8 nM on MMP 13 and 1940 nM at MMP 1.

As to `CCCCCC(C(=O)NO)[S+]([O-])c1ccc(OC)cc1` (single isomer, unassigned) [Example 81b, 2S*-(4-methoxy-phenyl-R*-sulfinyl)-heptanoic acid hydroxyamide], the IC50 at TACE is 228 nM; on MMP 9, 154 nM; at MMP 13, 15.7 nM; at MMP 1, 3760 nM.

With `CCC(CC)COc1ccc(S(=O)(=O)C2(C(=O)NO)CCN(Cc3ccccc3)CC2)cc1` [Example 259, 1-Benzyl4-[4-(2-ethyl-butoxy)-benzenesulfonyl]-piperidine-4-carboxylic acid hydroxyamide], the inhibition at 10 µM at TACE amounted to 39%. Moreover, the IC50 at MMP 9 was 14.3 nM; at MMP 13, 5.3 nM; at MMP 1 it was 3160 nM.

Turning to `CCN1CCC(C(=O)NO)(S(=O)(=O)c2ccc(Oc3ccc(Cl)cc3)cc2)CC1` [Example 250, 4-[4-(4-chloro-phenoxy)-benzenesulfonyl]1-ethyl-piperidine-4-carboxylic acid hydroxyamide], the IC50 at TACE is 413 nM; on MMP 9, 1.6 nM; at MMP 13, 0.8 nM; at MMP 1 it was 1720 nM.

With “2-(4-Fluoro-benzenesulfonyl)-2-but-2-ynyl-hexynoic acid hydroxyamide [Example 78]”, on TACE (1 micromolar), the “TACE % inhibition at 1 micromolar” value came out at 24.58%. The IC50 on MMP 9 stood at 560 nM; on MMP 13, 34 nM.

Turning to `CN1CCC(C(=O)NO)(S(=O)(=O)c2ccc(OCc3ccc(Cl)cc3)cc2)CC1` [Example 264, [4-(4-Chloro-benzyloxy)benzenesulfonyl]-1-methylpiperidine-4-carboxylic acid hydroxamide], the IC50 is 182 nM on TACE, 2.9 nM at MMP 9, 3.1 nM on MMP 13 and 4290 nM at MMP 1.
